Here are results for one substance from patent publication US11717536B2, “Treatment for periodontitis” (THE UNIVERSITY OF MELBOURNE, priority 2017, dated 2023).

“Also recorded” adds a separate entry of the source. Marks after values point to notes of the source that are not given here.

The subject of one experiment is Leptothrichia shahii. The experiment is described as follows: Clinical trial: plaque microbial analysis, Leptothrichia shahii. It is filed as in vivo. The note with it: 18.8 mg CPP-ACP sugar-free gum, 20 min six times per day, 14 days, vs no gum chewing; supragingival plaque. An excerpt:
(§1) Following the completion of the examination and supragingival plaque collection, participants received a supragingival scaling, clean and prophylaxis of all their teeth. At the completion of the last examination for leg 3, each participant received a professional fluoride treatment.
(§2) Participants had all supragingival plaque collected from the buccal surfaces of their maxillary molars (teeth 17, 16, 26 & 27) with a sterile scaling instrument. The plaque samples from each tooth were placed in separate sterile tubes, to give four samples per participant.
(§3) Genomic DNA was extracted from the plaque using a combination of mechanical disruption of the cells via a Precellys homogeniser and the chemical extraction and purification of the genomic DNA via the PowerLyzer PowerSoil DNA Isolation Kit (MoBio). Quantitation of the extracted DNA was achieved using a Qubit dsDNA High Sensitivity Assay kit (ThermoFisher), before 5 ng DNA was used as template in a PCR reaction that amplified the V4 variable region of the 16S ribosomal RNA gene and individually barcoded the PCR product from each sample. The barcoded DNA was then sequenced using an Ion Torrent Personal Genome machine and Torrent Suite™ Software (ThermoFisher).
(§4) Analysis of the resulting sequence of the 16S ribosomal RNA gene enabled identification of the bacterial population present in each sample, down to the species level. […]

Another experiment concerns Lautropia mirabilis. As to the kind of experiment: Clinical trial: plaque microbial analysis, Lautropia mirabilis. The note with it: 18.8 mg CPP-ACP sugar-free gum, 20 min six times per day, 14 days, vs no gum chewing; supragingival plaque. It is filed as in vivo.
Text: as §1, §2, §3, §4

The test system of another experiment is gingivitis. The experiment is described as follows: Clinical trial: gingivitis by Modified Gingival Index. The note with it: CPP-ACP gum (18.8 and 56.4 mg), 14 days, vs no gum chewing; FIG. 2. The format is in vivo, human. As for the experimental part: Following the completion of the examination and supragingival plaque collection, participants received a supragingival scaling, clean and prophylaxis of all their teeth. At the completion of the last examination for leg 3, each participant received a professional fluoride treatment. Gingivitis was measured using the Modified Gingival Index [Lobene et al 1986]. This index is a modification of the Loe and Silness Gingival Index and allows greater discrimination for mild and moderate gingivitis. In this study, gingival inflammation on a scale from 0 to 4 was scored for gingival tissues associated with four sites (buccal, lingual, mesial and distal) of all teeth.

Experiment [1] has as its system Actinomyces naeslundii (NCTC 10301). The experiment is described as follows: Six species polymicrobial biofilm in constant-depth film fermenter, species composition: A. naeslundii. It is filed as cell-based. The note with it: 19 days; mean ± standard deviation; n = 5-21. As for the experimental part: (§5) To model supragingival plaque six representative oral bacterial species, Streptococcus sanguinis (NCTC 7863), Streptococcus mutans Ingbritt, Actinomyces naeslundii (NCTC 10301), Veillonella parvula (ATCC 17745), Lactobacillus casei (NCDO 161) and Fusobacterium nucleatum (ATCC 10953) (Table 5) were cultured as a polymicrobial biofilm on a human enamel substratum in a constant-depth film fermenter (CDFF; Cardiff University, UK). The CDFF was housed in a 37° C. incubator under anaerobic conditions which were maintained by a constant flow of 5% CO2 in N2 at 1 L/h. The CDFF contained 15 removable polytetrafluoroethylene (PTFE) pans on a circular platform that was rotated at a constant speed of three rpm. The biofilms were grown on three enamel blocks (see below) in each PTFE pan using an artificial saliva medium (ASM, 2.5 g/L mucin type II (porcine, gastric, Sigma), 2.0 g/L bacteriological peptone (Oxoid), 2.0 g/L tryptone (Oxoid), 1.0 g/L yeast extract (Oxoid), 0.35 g/L NaCl, 0.2 g/L KCl, 0.2 mg/L vitamin K, 1 mg/L haemin and 0.1 g/L cysteine hydrochloride) at a constant flow rate of 30 mL/h. Prior to inoculation, the CDFF pan surfaces were conditioned for 24 h with ASM at a flow rate of 10 mL/h (McBain et al (2003) J Appl Microbiol. 94(4):655-66). In order to mimic in vivo bacterial growth conditions in the oral cavity with dietary sugar intake and to provide a high cariogenic challenge, a 1% (w/v) sucrose solution in ASM was pumped into the CDFF four times a day at four hourly intervals with a flow rate of 30 mL/h for 10 min.
Three treatments were applied to the polymicrobial biofilms: 290 ppm fluoride with 220 ppm fluoride as SnF2 and 70 ppm fluoride as NaF (referred to as SnF2), 2% CPP-ACP and 2% CPP-ACP-SnF2. […]
(§6) For each timepoint, DNA was extracted separately from 8-9 enamel blocks using PowerLyzer® PowerSoil® DNA Isolation Kits (MoBio Laboratories) following the manufacturers “Vacuum Protocol” with a Precellys® bead homogeniser (Bertin Technologies). Samples were quantified using a Qubit™ dsDNA HS assay kit (Life Technologies) before being stored at −80° C. […]

Experiment [2] deals with Lactobacillus casei (NCDO 161). The experiment is described as follows: Six species polymicrobial biofilm in constant-depth film fermenter, species composition: L. casei. It is filed as cell-based. As for the experimental part:
as §5
Three treatments were applied to the polymicrobial biofilms: 290 ppm fluoride with 220 ppm fluoride as SnF2 and 70 ppm fluoride as NaF (referred to as SnF2), 2% CPP-ACP and 2% CPP-ACP-SnF2. These treatments were compared with the control in which the test solution was replaced with ASM. Each treatment was applied using two 10 min pulses of the test solution in ASM with a flow rate of 30 mL/h. The first pulse started 30 min prior to the first sucrose pulse of the morning and the second started 3 h 30 min after the final sucrose pulse of the day.
On day 6, 12 and 19 after inoculation four pans were removed aseptically from the CDFF and replaced with blank sterile pans. Enamel blocks from the pans were removed for bacterial enumeration and transverse microradiography.
Planktonic and loosely attached bacterial cells were firstly removed from the enamel blocks by light washing with 100 μL ASM. […]
as §6

For the substance “Casein phosphopeptide-amorphous calcium phosphate [CPP-ACP]”, the “% decrease in relative abundance, Leptothrichia shahii” value in the experiment on Leptothrichia shahii is 73% (p < 0.01). The “% decrease in relative abundance, Lautropia mirabilis” value in the experiment with Lautropia mirabilis is 70% (p < 0.05). For the same substance, the gingival index result with gingivitis was “significant CPP-ACP dose-related improvement”. Besides, the “A. naeslundii as a percentage of total bacteria in the biofilm” value in experiment [1] is recorded as 11.93 ± 2.34^b %. The “L. casei as a percentage of total bacteria in the biofilm” value in experiment [2] (19 days, mean ± standard deviation, n = 5-21) was 0.38 ± 0.23^ac %. In experiment [2] (twice daily treatment, day 19), the “change in abundance of L. casei relative to the control (in words)” value is reported as “dramatically decreased; also recorded: suppressed the emergence”. The “decrease in relative abundance of L. casei compared with the control” value in experiment [2] (twice daily treatment, consistent) is on record as greater than 95%.
